Results as given in patent US6608178B1, “5-hydroxytryptophol (5-HTOL) derivatives, antibodies, immunoassays and detection of recent alcohol consumption” (Alco Dia A.B., priority 1996, dated 2003).

Test system: mouse monoclonal anti-5-HTOL antibody
Assay: Cross reactivity in the competitive immunoassay (labelled conjugate IV vs. anti-5-HTOL antibody)
Type: binding
Conditions: allowable maximal cross reactivity in urine for a 50 nM detection limit of T-5-G; the tested antibody complied with these criteria
Procedure: Crossreactivity for various substances was measured in the immunoassay method described below with dilutions (in the diluent) of the tested substance used in stead of urine or standard. The concentration range tested for each substance covered three magnitudes and was up to or above one magnitude the highest noted literature value.
Diluent was 0.05 M sodium phosphate buffer, pH 7.0, containing 0.01 M EDTA, 0.1% Tween® and 1% BSA. Decanting solution was Pharmacia decanting suspension without added antibody suspension (Pharmacia Diagnostics AB). μ-agarose particles carried covalently bound sheep-anti-mouse antibody.
Assay Procedure: Pipette to a test tube 50 μl urine or standard, 50 μl tracer solution, 50 μl antibody solution (one of the above-mentioned six selected clones, 5 μg/ml), mix on shaker ˜600 rpm for ˜1 min, allow to stand for 1.5 h at room temperature, 50 μl of the sheep anti-mouse micro-agarose suspension (˜100 mg/ml), mix as above and let stand for another 0.5 h, then add 2 ml decanting solution, centrifuge 10 min at 3000 rpm, with tubes in Pharmacia decanting racks, in the JR-3.2 Rack Rotor, in a Beckman J-6B centrifuge. Within 5 min after completed centrifugation decant the supernatant and let tube racks stand inverted on absorbtive tissue for 2 min. Finally the remaining radioactivity in the tubes is measured in a gamma counter. A standard curve is made with T-5-G in the diluent at 10, 100, 1000 and 10000 nmol/L.

Row | Structure (SMILES) | Acceptable Crossreactivity
1 | O=C(O)Cc1c[nH]c2ccc(O)cc12 [5-HIAA, 5-hydroxyindole-3-acetic acid] | ≤ 0.07%
2 | N[C@@H](Cc1c[nH]c2ccc(O)cc12)C(=O)O [5-hydroxytryptophan] | ≤ 0.1%
3 | COc1ccc2[nH]cc(CCN)c2c1 [5-methoxytryptamine] | ≤ 5%
4 | COc1ccc2[nH]cc(CCO)c2c1 [5-methoxytryptophol] | ≤ 5%
5 | C[C@]12CC[C@@H]3c4ccc(O[C@@H]5O[C@H](C(=O)O)[C@@H](O)[C@H](O)[C@H]5O)cc4CC[C@H]3[C@@H]1CCC2=O [estrone-β-D-glucuronide] | ≤ 50%
6 | O=Cc1c[nH]c2ccccc12 [indole-3-aldehyde] | ≤ 0.05%
7 | O=C(O)Cc1c[nH]c2ccccc12 [indolyl acetic acid] | ≤ 0.07%
8 | O=S(=O)(O)Oc1c[nH]c2ccccc12 [indoxyl sulphate] | ≤ 0.002%
9 | O=C(O)[C@H]1O[C@@H](Oc2c[nH]c3ccccc23)[C@H](O)[C@@H](O)[C@@H]1O [indoxyl-β-D-glucuronide] | ≤ 0.002%
10 | COc1ccc2[nH]cc(CCNC(C)=O)c2c1 [melatonin] | ≤ 50%
11 | O=C(O)[C@H]1O[C@@H](Oc2ccc([N+](=O)[O-])cc2)[C@H](O)[C@@H](O)[C@@H]1O [p-nitrophenyl-β-D-glucuronide] | ≤ 0.002%
12 | NCCc1c[nH]c2ccc(O)cc12 [serotonin, 5-hydroxytryptamine] | ≤ 7%
13 | CC12CCC(=O)C=C1CCC1C2CCC2(C)C(OC3OC(C(=O)O)C(O)C(O)C3O)CCC12 [testosterone-β-D-glucuronide] | ≤ 50%
14 | NCCc1c[nH]c2ccccc12 [tryptamine] | ≤ 6%
15 | N[C@@H](Cc1c[nH]c2ccccc12)C(=O)O [tryptophan] | ≤ 0.6%

Test system: not given
Assay: not given
Conditions: human urine; cited from earlier work

Row | Structure (SMILES) | Share of urinary 5-HTOL conjugated with glucuronic acid
16 | O=C(O)[C@H]1O[C@@H](Oc2ccc3[nH]cc(CCO)c3c2)[C@H](O)[C@@H](O)[C@@H]1O [T-5-G, 3-(2-hydroxyethyl)indole-5-yl-O-β-D-glucopyranosiduronic acid] | 75-95%
